Test results as given in PubChem BioAssay AID256 (DTP/NCI, 2004).
Values joined by “and” are separate entries in the source; they are usually repeats but may differ in a detail not shown here. Equal values may be shown once. Toxic doses and inconclusive results are not listed.

Tested on: CD2F1 mice, L1210 leukemia ip, survival T/C
Assay: NCI In Vivo Anticancer Drug Screen. Data for tumor model L1210 Leukemia (intraperitoneal) in CD2F1 (CDF1) mice
Conditions: higher = longer survival
Outline: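 In this screen, transplantable tumors were grown in mice given either the compound or its vehicle. Results were expressed as the treated measurement relative to the control measurement.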

[1] = endpoint: mean survival time, dose: 100.0 mg/kg/injection, schedule: Q01DX009 (ip), vehicle: saline with Tween-80
[2] = endpoint: mean survival time, dose: 100.0 mg/kg/injection, schedule: Q04DX003 (ip), vehicle: saline with Tween-80
[3] = endpoint: mean survival time, dose: 200.0 mg/kg/injection, schedule: Q01DX009 (ip), vehicle: saline with Tween-80
[4] = endpoint: mean survival time, dose: 200.0 mg/kg/injection, schedule: Q04DX003 (ip), vehicle: saline with Tween-80
[5] = endpoint: mean survival time, dose: 400.0 mg/kg/injection, schedule: Q01DX009 (ip), vehicle: saline with Tween-80
[6] = endpoint: mean survival time, dose: 400.0 mg/kg/injection, schedule: Q04DX003 (ip), vehicle: saline with Tween-80
[7] = endpoint: mean survival time, dose: 12.5 mg/kg/injection, schedule: Q01DX005 (ip), vehicle: water
[8] = endpoint: mean survival time, dose: 25.0 mg/kg/injection, schedule: Q01DX005 (ip), vehicle: water
[9] = endpoint: mean survival time, dose: 50.0 mg/kg/injection, schedule: Q01DX005 (ip), vehicle: water
[10] = endpoint: mean survival time, dose: 100.0 mg/kg/injection, schedule: Q01DX005 (ip), vehicle: water
[11] = endpoint: mean survival time, dose: 50.0 mg/kg/injection, schedule: Q01DX009 (ip), vehicle: saline

## COc1ccc([Si](F)(c2ccc(OC)cc2)c2ccc(OC)cc2)cc1
[1]
  T/C: 100 % of control
[2]
  T/C: 95 % of control
[3]
  T/C: 94 % of control
[4]
  T/C: 93 % of control
[5]
  T/C: 93 % of control
[6]
  T/C: 90 % of control

## O=C(O)/C=C(/Cl)c1ccccc1
[1]
  T/C: 101 % of control
[3]
  T/C: 91 % of control
[5]
  T/C: 89 % of control

## CN(C)CCCNc1c2ccccc2nc2cccc([N+](=O)[O-])c12
endpoint: mean survival time, dose: 0.2 mg/kg/injection, schedule: Q04DX002 (ip), vehicle: saline + alcohol
  T/C: 103 % of control
endpoint: mean survival time, dose: 0.4 mg/kg/injection, schedule: Q04DX002 (ip), vehicle: saline + alcohol
  T/C: 103 % of control
endpoint: mean survival time, dose: 0.8 mg/kg/injection, schedule: Q04DX002 (ip), vehicle: saline + alcohol
  T/C: 100 % of control

## OC(c1ccccc1)(c1ccccc1)c1ccc(Cl)cc1
[1]
  T/C: 97 % of control
[3]
  T/C: 101 % of control
[5]
  T/C: 101 % of control

## COC(=O)/C=C/c1ccc(O)cc1
endpoint: mean survival time, dose: 100.0 mg/kg/injection, schedule: Q01DX001 (ip), vehicle: saline sonified
  T/C: 102 % of control
endpoint: mean survival time, dose: 100.0 mg/kg/injection, schedule: Q04DX002 (ip), vehicle: saline with Tween-80
  T/C: 101 % of control
endpoint: mean survival time, dose: 200.0 mg/kg/injection, schedule: Q01DX001 (ip), vehicle: saline sonified
  T/C: 102 % of control
endpoint: mean survival time, dose: 200.0 mg/kg/injection, schedule: Q04DX002 (ip), vehicle: saline with Tween-80
  T/C: 101 % of control
endpoint: mean survival time, dose: 400.0 mg/kg/injection, schedule: Q01DX001 (ip), vehicle: saline sonified
  T/C: 102 % of control
endpoint: mean survival time, dose: 400.0 mg/kg/injection, schedule: Q04DX002 (ip), vehicle: saline with Tween-80
  T/C: 96 % of control

## COc1cc(CO)ccc1OCc1ccccc1
[2]
  T/C: 98 % of control
[4]
  T/C: 96 % of control
[6]
  T/C: 105 % of control

## Cn1nc(CC#N)c2c(N)ncnc21
[7]
  T/C: 96 % of control
[8]
  T/C: 93 % of control
[9]
  T/C: 92 % of control
[10]
  T/C: 88 % of control
endpoint: mean survival time, dose: 200.0 mg/kg/injection, schedule: Q01DX005 (ip), vehicle: water
  T/C: 91 % of control

## OCC1OC(n2cnc3c(=S)nc(NO)[nH]c32)C(O)C1O (centres undefined)
endpoint: mean survival time, dose: 6.25 mg/kg/injection, schedule: Q01DX005 (ip), vehicle: saline with Tween-80
  T/C: 196 % of control and 237 % of control
endpoint: mean survival time, dose: 12.5 mg/kg/injection, schedule: Q01DX005 (ip), vehicle: saline with Tween-80
  T/C: 164 % of control and 263 % of control
endpoint: mean survival time, dose: 25.0 mg/kg/injection, schedule: Q01DX005 (ip), vehicle: saline with Tween-80
  T/C: 102 % of control
endpoint: mean survival time, dose: 50.0 mg/kg/injection, schedule: Q01DX005 (ip), vehicle: saline with Tween-80
  T/C: 89 % of control

## CS(=O)(=O)OC1CCCSc2ccccc21 (centres undefined)
endpoint: mean survival time, dose: 100.0 mg/kg/injection, schedule: Q01DX001 (ip), vehicle: carboxymethylcellulose (CMC)
  T/C: 103 % of control
endpoint: mean survival time, dose: 200.0 mg/kg/injection, schedule: Q01DX001 (ip), vehicle: carboxymethylcellulose (CMC)
  T/C: 97 % of control
endpoint: mean survival time, dose: 400.0 mg/kg/injection, schedule: Q01DX001 (ip), vehicle: carboxymethylcellulose (CMC)
  T/C: 97 % of control

## Cc1ccc(NC(=O)/C=C/C(=O)O)cc1
[1]
  T/C: 105 % of control
[3]
  T/C: 107 % of control
[5]
  T/C: 103 % of control

## C=Cc1c(C)c2cc3[nH]c(cc4nc(cc5nc(cc1[nH]2)C(C)=C5CCC(=O)O)C(CCC(=O)O)=C4C)c(C)c3C=C
endpoint: mean survival time, dose: 12.5 mg/kg/injection, schedule: Q01DX009 (ip), vehicle: saline with Tween-80
  T/C: 88 % of control
endpoint: mean survival time, dose: 25.0 mg/kg/injection, schedule: Q01DX009 (ip), vehicle: saline with Tween-80
  T/C: 88 % of control
endpoint: mean survival time, dose: 50.0 mg/kg/injection, schedule: Q01DX009 (ip), vehicle: saline with Tween-80
  T/C: 88 % of control

## CCOC(=O)C(N)CSCc1ccccc1 (centres undefined)
endpoint: mean survival time, dose: 100.0 mg/kg/injection, schedule: Q04DX003 (ip), vehicle: saline
  T/C: 103 % of control
endpoint: mean survival time, dose: 200.0 mg/kg/injection, schedule: Q04DX003 (ip), vehicle: saline
  T/C: 97 % of control
endpoint: mean survival time, dose: 400.0 mg/kg/injection, schedule: Q04DX003 (ip), vehicle: saline
  T/C: 101 % of control

## CC(=O)NCNC(C)=O
endpoint: mean survival time, dose: 100.0 mg/kg/injection, schedule: Q01DX001 (ip), vehicle: saline
  T/C: 100 % of control
endpoint: mean survival time, dose: 200.0 mg/kg/injection, schedule: Q01DX001 (ip), vehicle: saline
  T/C: 93 % of control
endpoint: mean survival time, dose: 400.0 mg/kg/injection, schedule: Q01DX001 (ip), vehicle: saline
  T/C: 100 % of control

## COC(=O)C(C)S(=O)(=O)O (centres undefined)
endpoint: mean survival time, dose: 100.0 mg/kg/injection, schedule: Q04DX002 (ip), vehicle: saline
  T/C: 106 % of control
endpoint: mean survival time, dose: 200.0 mg/kg/injection, schedule: Q04DX002 (ip), vehicle: saline
  T/C: 106 % of control
endpoint: mean survival time, dose: 400.0 mg/kg/injection, schedule: Q04DX002 (ip), vehicle: saline
  T/C: 95 % of control

## Cc1nc([N+](=O)[O-])c(Br)n1C
[2]
  T/C: 103 % of control
[4]
  T/C: 108 % of control
[6]
  T/C: 94 % of control

## N#CCc1[nH]nc2ncnc(N)c12
[7]
  T/C: 100 % of control
[8]
  T/C: 100 % of control
[9]
  T/C: 105 % of control
[10]
  T/C: 105 % of control

## O=C(CCOP(=O)(NCCCl)NCCCl)c1ccccc1
endpoint: median survival time, dose: 62.5 mg/kg/injection, schedule: Q01DX001 (ip), vehicle: saline with Tween-80
  T/C: 117 % of control
endpoint: median survival time, dose: 125.0 mg/kg/injection, schedule: Q01DX001 (ip), vehicle: saline with Tween-80
  T/C: 166 % of control
endpoint: median survival time, dose: 250.0 mg/kg/injection, schedule: Q01DX001 (ip), vehicle: saline with Tween-80
  T/C: 165 % of control and 229 % of control
endpoint: median survival time, dose: 500.0 mg/kg/injection, schedule: Q01DX001 (ip), vehicle: saline with Tween-80
  T/C: 291 % of control

## CC(C)(S)CNCCSC(=O)c1ccccc1
[1]
  T/C: 103 % of control
[3]
  T/C: 100 % of control
[5]
  T/C: 94 % of control

## N#CCc1nn(C2OC(CO)C(O)C2O)nc1C(N)=O (centres undefined)
endpoint: median survival time, dose: 8.5 mg/kg/injection, schedule: Q01DX005 (ip), vehicle: water
  T/C: 103 % of control
endpoint: median survival time, dose: 17.0 mg/kg/injection, schedule: Q01DX005 (ip), vehicle: water
  T/C: 103 % of control
endpoint: median survival time, dose: 34.0 mg/kg/injection, schedule: Q01DX005 (ip), vehicle: water
  T/C: 100 % of control
endpoint: median survival time, dose: 38.0 mg/kg/injection, schedule: Q01DX005 (ip), vehicle: water
  T/C: 97 % of control
endpoint: median survival time, dose: 136.0 mg/kg/injection, schedule: Q01DX005 (ip), vehicle: water
  T/C: 100 % of control

## C[n+]1ccccc1CCc1cccc[n+]1C
[11]
  T/C: 100 % of control
endpoint: mean survival time, dose: 100.0 mg/kg/injection, schedule: Q01DX009 (ip), vehicle: saline
  T/C: 100 % of control
endpoint: mean survival time, dose: 200.0 mg/kg/injection, schedule: Q01DX009 (ip), vehicle: saline
  T/C: 104 % of control

## COc1ccc(CCNC2CCCCC2O)cc1OC (centres undefined)
endpoint: mean survival time, dose: 75.0 mg/kg/injection, schedule: Q01DX001 (ip), vehicle: saline
  T/C: 106 % of control
endpoint: mean survival time, dose: 150.0 mg/kg/injection, schedule: Q01DX001 (ip), vehicle: saline
  T/C: 98 % of control
endpoint: mean survival time, dose: 300.0 mg/kg/injection, schedule: Q01DX001 (ip), vehicle: saline
  T/C: 104 % of control

## CC(=O)NNC(=O)c1ccc(N(C)C)cc1
endpoint: mean survival time, dose: 12.5 mg/kg/injection, schedule: Q01DX009 (ip), vehicle: other
  T/C: 92 % of control
endpoint: mean survival time, dose: 25.0 mg/kg/injection, schedule: Q01DX009 (ip), vehicle: other
  T/C: 88 % of control
endpoint: mean survival time, dose: 50.0 mg/kg/injection, schedule: Q01DX009 (ip), vehicle: other
  T/C: 88 % of control
endpoint: mean survival time, dose: 100.0 mg/kg/injection, schedule: Q01DX009 (ip), vehicle: other
  T/C: 92 % of control
endpoint: mean survival time, dose: 200.0 mg/kg/injection, schedule: Q01DX009 (ip), vehicle: other
  T/C: 92 % of control

## CC[N+](C)(CC)CCOC(=O)c1ccccc1Oc1ccc(C)cc1
endpoint: mean survival time, dose: 25.0 mg/kg/injection, schedule: Q01DX009 (ip), vehicle: saline
  T/C: 107 % of control
[11]
  T/C: 107 % of control

## C=C(Br)CNC(=O)NCC
endpoint: mean survival time, dose: 25.0 mg/kg/injection, schedule: Q04DX003 (ip), vehicle: saline with Tween-80
  T/C: 94 % of control
endpoint: mean survival time, dose: 50.0 mg/kg/injection, schedule: Q04DX003 (ip), vehicle: saline with Tween-80
  T/C: 105 % of control
[2]
  T/C: 100 % of control

## Cc1ccc(S(=O)(=O)N2CCC(=O)c3ccc(Cl)cc32)cc1
endpoint: mean survival time, dose: 100.0 mg/kg/injection, schedule: Q01DX009 (ip), vehicle: Klucel (hydroxypropylcellulose) (HPC)
  T/C: 101 % of control
endpoint: mean survival time, dose: 200.0 mg/kg/injection, schedule: Q01DX009 (ip), vehicle: Klucel (hydroxypropylcellulose) (HPC)
  T/C: 93 % of control
endpoint: mean survival time, dose: 400.0 mg/kg/injection, schedule: Q01DX009 (ip), vehicle: Klucel (hydroxypropylcellulose) (HPC)
  T/C: 96 % of control
